Experimental data published in patent US4472582A, “3,5-Disubstituted-4'-(9-acridinylamino)-methane-sulfon-m-anisidide compounds having antitumor properties” (Development Finance Corporation of New Zealand, priority 1979, dated 1984).

system: L1210 leukemia (ip); test: Antileukemic screen, L1210 tumour ip, drug ip qd 1-5; assay type: in vivo, mice (C3H/DBA2 F1 hybrids); conditions: L1210-ip, qd 1-5; Table IV
From the text: In initial screening a standard drug administration schedule has been employed (ip, qd 1-5) and mice (C3 H/DBA2 F1 hybrids) bred in the laboratory, receive a standard tumor inoculum of 10^5 L1210 cells ip on day 0. After range finding experiments, an LD10 dose has then been derived employing doses separated by 0.05 log.dose units, an acceptable soluble drug formulation (B. F. Cain, R. N. Seelye and G. J. Atwell, J. Med. Chem., 17, 922-930 (1974)) and groups of six tumored mice at each dose level. Deaths occuring before day 8 have been taken as resulting from drug toxicity. From the linear regression relating percent probit-mortality and the logarithms of the corresponding doses, an LD10 value has been derived. Profiles of antileukemic activity have been obtained employing doses separated by 0.09 log.dose intervals. Significant percentage increases in life span of leukemic animals, obtained at and below the LD10 dose, have been linearly correlated with the logarithms of the corresponding doses. The increase in life span (ILS) specified by the life extension-log.dose regression line at the measured LD10 provides a representative measure of antileukemic effectiveness at a standard host load in toxicity (W. A. Denny and B. F. Cain, J. Med. Chem., 21, 430-437 (1978)). For congener selection ILS has been employed as a measure of factor (1) above and LD10 for factor (2). Desirable drug pharmacokinetic properties (factor (3)) have been screened for by employing standard ip drug administration and implanting tumor more remotely; either subcutaneously (sc) or intracerabrally (ic) (B. F. Cain and G. J. Atwell Europ J. Cancer, 10, 539 549 (1974), B. F. Cain and G. J. Atwell, J. Med. Chem., 19 1409-1416 (1976)).
ILS and LD10=as defined above.
D40=the drug dose necessary to provide 40% ILS in standard L1210 assays.

| Compound | ILS Observed |
| --- | --- |
| COc1cc(NS(C)(=O)=O)ccc1Nc1c2ccccc2nc2cc(Br)c(N)cc12 [Compound C1] | 90% |
| COc1cc(NS(C)(=O)=O)ccc1Nc1c2ccccc2nc2cc(C(F)(F)F)c(N)cc12 [Compound C2] | 108% |
| COc1cc(NS(C)(=O)=O)ccc1Nc1c2ccccc2nc2c(C)c([N+](=O)[O-])ccc12 [Compound C3] | 54% |
| COc1cc(NS(C)(=O)=O)ccc1Nc1c2ccccc2nc2c(C)c(C)ccc12 [Compound C4] | 79% |
| COc1cc(NS(C)(=O)=O)ccc1Nc1c2ccc([N+](=O)[O-])cc2nc2c(C)cccc12 [Compound C5] | 107% |
| COc1cc(NS(C)(=O)=O)ccc1Nc1c2ccc([N+](=O)[O-])cc2nc2c(OC)cccc12 [Compound C6] | 66% |
| COc1cc(NS(C)(=O)=O)ccc1Nc1c2ccc(N)cc2nc2c(C)cccc12 [Compound C7] | 125% |
| COc1cc(NS(C)(=O)=O)ccc1Nc1c2ccc(I)cc2nc2c(C)cccc12 [Compound C8] | 86% |
| COc1cc(NS(C)(=O)=O)ccc1Nc1c2ccc(I)cc2nc2c(OC)cccc12 [Compound C9] | 63% |
| CNc1ccc2c(Nc3ccc(NS(C)(=O)=O)cc3OC)c3cccc(C)c3nc2c1 [Compound C10] | 68% |
| COc1cc(NS(C)(=O)=O)ccc1Nc1c2ccc(Cl)cc2nc2c(C)cccc12 [Compound C11] | 57% |
| COc1cc(NS(C)(=O)=O)ccc1Nc1c2ccc(Cl)cc2nc2c(OC)cccc12 [Compound C12] | 82% |
| COc1cc(NS(C)(=O)=O)ccc1Nc1c2ccc(C)cc2nc2c(C)cccc12 [Compound C13] | 97% |
| COc1cc(NS(C)(=O)=O)ccc1Nc1c2ccc(C)cc2nc2c(C(N)=O)cccc12 [Compound C14] | 100% |
| COc1cc(NS(C)(=O)=O)ccc1Nc1c2ccc(Cl)cc2nc2c(C(N)=O)cccc12 [Compound C15] | 90% |
| COc1cc(NS(C)(=O)=O)ccc1Nc1c2ccc([N+](=O)[O-])cc2nc2c(C(N)=O)cccc12 [Compound C16] | 100% |

| Compound | ILS Observed |
| --- | --- |
| COc1cc(NS(C)(=O)=O)ccc1Nc1c2ccc(C(N)=O)cc2nc2c(C)cccc12 [Compound C17] | 150% |
| COc1cc(NS(C)(=O)=O)ccc1Nc1c2ccc(C(N)=O)cc2nc2c(OC)cccc12 [Compound C18] | 70% |
| COc1cc(NS(C)(=O)=O)ccc1Nc1c2ccc(Cl)cc2nc2cc(Cl)ccc12 [Compound C19] | 52% |
| COc1cc(NS(C)(=O)=O)ccc1Nc1c2ccc(Cl)cc2nc2cc(C(F)(F)F)ccc12 [Compound C20] | 5% |
| COc1cc(NS(C)(=O)=O)ccc1Nc1c2ccc(Br)cc2nc2cc(Br)ccc12 [Compound C21] | 82% |
| COc1cc(NS(C)(=O)=O)ccc1Nc1c2ccc(C)cc2nc2cc([N+](=O)[O-])ccc12 [Compound C22] | 91% |
| COc1cc(NS(C)(=O)=O)ccc1Nc1c2ccc([N+](=O)[O-])cc2nc2cc([N+](=O)[O-])ccc12 [Compound C23] | 58% |
| COc1cc(NS(C)(=O)=O)ccc1Nc1c2cccc(C)c2nc2c(C)cccc12 [Compound C24] | 87% |
| COc1cc(NS(C)(=O)=O)ccc1Nc1c2ccccc2nc2c(C)c(C)c(N)cc12 [Compound C25] | 61% |
| COc1cc(NS(C)(=O)=O)ccc1Nc1c2cc(N)c(Br)cc2nc2c(C)cccc12 [Compound C26] | 83% |
| COc1cc(NS(C)(=O)=O)ccc1Nc1c2cccc(C)c2nc2c(C)c([N+](=O)[O-])ccc12 [Compound C27] | 28% |
| COc1cc(NS(C)(=O)=O)ccc1Nc1c2cccc(C)c2nc2c(C)c(C)ccc12 [Compound C28] | 76% |
| COc1cc(NS(C)(=O)=O)ccc1Nc1c2ccc(C)cc2nc2c(C)c(C)ccc12 [Compound C29] | 58% |
| COc1cc(NS(C)(=O)=O)ccc1Nc1c2ccc([N+](=O)[O-])cc2nc2c(C)c(C)ccc12 [Compound C30] | 92% |
| COc1cc(NS(C)(=O)=O)ccc1Nc1c2ccc(N)cc2nc2c(C)c(C)ccc12 [Compound C31] | 79% |
| CNc1ccc2c(Nc3ccc(NS(C)(=O)=O)cc3OC)c3ccc(C)c(C)c3nc2c1 [Compound C32] | 64% |

same assay, conditions: in words

| Compound | Observed ILS compared with predicted ILS |
| --- | --- |
| COc1cc(NS(C)(=O)=O)ccc1Nc1c2ccccc2nc2cc(C(F)(F)F)c(N)cc12 [Compound C2] | observed ILS values greater than their predicted ILS values |
| COc1cc(NS(C)(=O)=O)ccc1Nc1c2ccc([N+](=O)[O-])cc2nc2c(C)cccc12 [Compound C5] | observed ILS values greater than their predicted ILS values |
| COc1cc(NS(C)(=O)=O)ccc1Nc1c2ccc(N)cc2nc2c(C)cccc12 [Compound C7] | observed ILS values greater than their predicted ILS values |
| COc1cc(NS(C)(=O)=O)ccc1Nc1c2ccc([N+](=O)[O-])cc2nc2c(C(N)=O)cccc12 [Compound C16] | observed ILS values greater than their predicted ILS values |
| COc1cc(NS(C)(=O)=O)ccc1Nc1c2ccc(C(N)=O)cc2nc2c(C)cccc12 [Compound C17] | observed ILS values greater than their predicted ILS values |
| COc1cc(NS(C)(=O)=O)ccc1Nc1c2ccc(C)cc2nc2cc([N+](=O)[O-])ccc12 [Compound C22] | observed ILS values greater than their predicted ILS values |

same assay, conditions: monosubstituted m-AMSA; Table V

| Compound | ILS Observed |
| --- | --- |
| COc1cc(NS(C)(=O)=O)ccc1Nc1c2ccccc2nc2ccc(N)cc12 [Compound M1] | 106% |
| COc1cc(NS(C)(=O)=O)ccc1Nc1c2ccccc2nc2cc(C)ccc12 [Compound M2] | 88% |
| COc1cc(NS(C)(=O)=O)ccc1Nc1c2ccccc2nc2cc(C(N)=O)ccc12 [Compound M3] | 150% |
| CNC(=O)c1ccc2c(Nc3ccc(NS(C)(=O)=O)cc3OC)c3ccccc3nc2c1 [Compound M4] | 92% |
| COc1cc(NS(C)(=O)=O)ccc1Nc1c2ccccc2nc2cc(Cl)ccc12 [Compound M5] | 72% |
| COc1cc(NS(C)(=O)=O)ccc1Nc1c2ccccc2nc2cc(Br)ccc12 [Compound M6] | 119% |
| COc1cc(NS(C)(=O)=O)ccc1Nc1c2ccccc2nc2cc(I)ccc12 [Compound M7] | 98% |
| COc1cc(NS(C)(=O)=O)ccc1Nc1c2ccccc2nc2cc(C(F)(F)F)ccc12 [Compound M8] | 63% |
| COc1cc(NS(C)(=O)=O)ccc1Nc1c2ccccc2nc2cc(N)ccc12 [Compound M9] | 82% |
| CNc1ccc2c(Nc3ccc(NS(C)(=O)=O)cc3OC)c3ccccc3nc2c1 [Compound M10] | 94% |
| COc1cc(NS(C)(=O)=O)ccc1Nc1c2ccccc2nc2cc([N+](=O)[O-])ccc12 [Compound M11] | 84% |
| COc1cc(NS(C)(=O)=O)ccc1Nc1c2ccccc2nc2c(C)cccc12 [Compound M12] | 111% |
| COc1cc(NS(C)(=O)=O)ccc1Nc1c2ccccc2nc2c(C(N)=O)cccc12 [Compound M13] | 112% |
| CNC(=O)c1cccc2c(Nc3ccc(NS(C)(=O)=O)cc3OC)c3ccccc3nc12 [Compound M14] | 135% |
| COc1cc(NS(C)(=O)=O)ccc1Nc1c2ccccc2nc2c(C(=O)NCC(N)=O)cccc12 [Compound M15] | 98% |
| COc1cc(NS(C)(=O)=O)ccc1Nc1c2ccccc2nc2c(OC)cccc12 [Compound M16] | 110% |
